In patent US20230110824A1, “FLUORESCENT PROBES FOR DETECTION OF CALCIFICATIONS” (TECHNISCHE UNIVERSITÄT BERLIN, priority 2020, published 2023):
“Also recorded” adds a separate entry of the source.

Key:
[1] = Staining of mouse rib sections with the dyes, epifluorescence microscopy; format: binding, mouse (C57BL/6); details: for dependence of fluorescence intensity of rib staining on incubation time: 10 to 120 mins; for dependence of fluorescence intensity of rib staining on dye concentration: 1, 0.1 and 0.01 mg/mL in HEPES; for HAP-associated staining / binding to HAP in rib sections: 1 mg/mL
Experimental: Mouse ribs (C57BL/6) were fixed in 4% paraformaldehyde (PFA). Ribs were processed for wax embedding through sequential immersion in increasing concentrations of ethanol followed by immersion in xylene/clearene and paraffin wax embedding. Rib sections (6 μm thickness) were dewaxed with xylene and rehydrated with decreasing concentrations of ethanol and distilled water (dH2O). Rib sections were incubated with a variety of either namely((4-(5,5-difluoro-1,3,7,9-tetramethyl-5H-414,514-dipyrrolo[1,2-c:2′,1′-f][1,3,2]diazaborinin-10-yl)phenyl)phosphonic acid) (BODIPY-PPA), 5,10,15,20-tetrakis[p-phenylphosphonicacid] porphyrin (p-H8TPPA) and 5,10,15,20-tetrakis[m-phenylphosphonic acid] porphyrin (m-H8TPPA) dyes. […] Meso-tetra(4-phosphorylphenyl)porphine, porph-tetra-meta-phenyl phosphonate, BODIPY-PPA; and BODIPY-PPA-2Et2 were all incubated for 120 mins when diluted to 1, 0.1 and 0.01 mg/mL in HEPES, and incubated at 1 mg/mL for 120, 60, 30, 20 and 10 mins. Images were obtained for up to two weeks after staining. p-H8TPPA-iPr8 and p-TBr3PPA-iPr2 were only incubated for 120 mins at 1 mg/mL, including an incubation with dimethyl sulfoxide (DMSO). Negative controls were included by incubating ribs with the buffers alone. Following incubation with the respective dyes, slides were washed with their respective buffers (3×5 mins) and counter stained with DAPI, diluted in PBS, for 20 mins. After washing with PBS (3×5 mins), slides were mounted with 70% glycerol, diluted in PBS. Images were acquired on a Leica DM5500 epifluorescent microscope, using a 20× objective. The exposure times used to capture these images were kept the same throughout imaging. Images were processed using the FIJI software.
To further probe their HAP binding properties, we have used laterally sectioned mouse ribs as an example of HAP, which were incubated with p-H8TPPA at concentrations ranging from 0.01 to 1.0 mg/mL in HEPES buffer for varying times at room temperature and imaged by fluorescence microscopy (for details see description of the figures), to assess HAP binding capability.

[2] = test system: intestinal Caco-2 cell line; details: at high concentrations; cited from earlier work
THP-1 monocytes = assay: Cellular uptake / cell labeling of proliferating THP-1 monocytes, fluorescence emission scan; format: cell-based, human; details: loading buffer, 60 min, 420 nm excitation
Experimental: In addition to the application on bone sections, the phenylphosphonic acid/esterified porphyrins' propensity for cellular uptake was tested on proliferating human cells (FIG. 15). Aiming to use phenylphosphonic acid functionalized porphyrins in in vivo applications, the negative charge on the deprotonated phosphonate might be a handicap by limiting cell permeability. Optional demasking of phosphonate esters in metabolic surroundings might occur, recreating the metal binding PhPO3^2-. This possibility led us to examine p-H8TPPA and p-H8TPPA-iPr8 suitability for in vivo cellular experiments by testing their permeability on proliferating human THP-1 monocytes.
We have treated THP-1 monocytes with the Phosphorylphenyl-modified porphyrins in loading buffer (10 mM HEPES, pH 7.35, 120 mM NaCl, 5.4 mM KCl, 5 mM glucose, 1.3 mM CaCl2, 1 mM MgCl2, 1 mM NaH2PO4, 0.3% bovine serum albumin) for 60 min. Excess fluorescence dye was removed by multiple washing steps before fluorescence emission scanning using 420 nm excitation (Tecan Infinite M200 reader; Tecan, Germany). […] We hypothesize that the phosphonates, being somewhat amphipathic, were able to penetrate the cell membrane, whereas the more nonpolar esters were not as efficient.

[3] = Absorbance and fluorescence spectra in presence and absence of HAP (Flexstation 3 microplate reader); format: binding
Experimental: The absorbance (A) and fluorescence (B) spectra of 0.01 mg mL^−1p-H8TPPA in the presence (dashed lines) and absence (solid lines) of HAP. The dye was diluted to 0.01 mg mL^−1 in PBS (pH 7.4, green), TBS (pH 7.4, orange), HEPES (pH 7.4, purple) and d H2O with absorbance and fluorescence spectra obtained using the Flexstation 3 microplate reader.
Characterization of Probes: The structure and purity of the probes were characterized by liquid chromatography, infrared, NMR, and/or mass spectrometry. Their optical properties were characterized by absorption and fluorescence spectrophotometry in the presence and absence of authentic hydroxyapatite, whitlockite, and other doped apatites. The dyes were also tested on mouse ribs as an example of hydroxyapatite in tissue.
This is also reflected in the maximal peak of the fluorescence intensity (FIG. 14 B), with a shift from λem 646-648 nm for PBS, TBS and HEPES to λem 675 nm when diluted in dH2O. […] Previously reported bisphosphonate fluorophores had […] aliphatic carbons between the fluorescent core and HAP binding, therefore, such systems merely functioned as fluorescent labels with no change in emission due to HAP binding since they lacked synergistic interaction between the HAP and the fluorescent core. Phosphonic acids that have direct sp^2 bonds to the fluorescent core could extend the conjugation of the fluorescent core to the HAP and thereby could initiate changes in the ground and excited states resulting in quenching or enhancing the fluorescence emission.

[4] = Precipitation / solubility of the dye in incubation buffers
Experimental: Mouse ribs were incubated for 120 mins with p-TBr3PPA-iPr2 (5,10,15-tris[p-bromophenyl]-20-[p-phenyl-, bis(1-methylethyl) ester phosphonic acid] porphyrin) diluted to 1 mg/mL in different buffers.
Mouse ribs were incubated for 120 mins with p-H8TPPA-iPr8 phosphonate diester diluted to 1 mg/mL in different buffers.

[5] = 1 mg/mL in HEPES, 120 mins, imaged up to 14 days / two weeks after staining

((4-(5,5-difluoro-1,3,7,9-tetramethyl-5H-414,514-dipyrrolo[1,2-c:2′,1′-f][1,3,2]diazaborinin-10-yl)phenyl)phosphonic acid) [BODIPY-PPA]
dependence of fluorescence intensity of rib staining on incubation time ([1]; 1 mg/mL in HEPES): decrease in fluorescence intensity is observed for decreasing incubation times | change of fluorescence intensity after staining [1, 5]: only a very slight decrease in fluorescence intensity | dependence of fluorescence intensity of rib staining on dye concentration ([1]; 120 mins): strong concentration dependency of staining

O=P(O)(O)c1ccc(-c2c3nc(c(-c4ccc(P(=O)(O)O)cc4)c4ccc([nH]4)c(-c4ccc(P(=O)(O)O)cc4)c4nc(c(-c5ccc(P(=O)(O)O)cc5)c5ccc2[nH]5)C=C4)C=C3)cc1 [p-H8TPPA, 5,10,15,20-tetrakis[p-phenylphosphonic acid] porphyrin]
toxicity for an intestinal cell line [2]: no toxicity | cell labeling / passage through the cellular membrane (THP-1 monocytes): much more efficient in cell labeling; also recorded: can travel through the cellular membrane | fluorescence intensity upon HAP binding [3]: increased | increase of fluorescence intensity upon HAP binding ([3]; 0.01 mg mL^-1 in HEPES pH 7.4): 2.0 fold | increase of fluorescence intensity upon HAP binding ([3]; 0.01 mg mL^-1 in PBS pH 7.4): 1.8 fold | increase of fluorescence intensity upon HAP binding ([3]; 0.01 mg mL^-1 in TBS pH 7.4): 2.0 fold | increase of fluorescence intensity upon HAP binding ([3]; 0.01 mg mL^-1 in d H2O): 1.6 fold | maximal peak of the fluorescence intensity (λem) ([3]; PBS, TBS and HEPES): 646-648 nm | absorbance peak maximum ([3]; PBS, TBS and HEPES (before shift)): 415 nm | absorbance peak maximum ([3]; diluted in dH2O): 435 nm | maximal peak of the fluorescence intensity (λem) ([3]; diluted in dH2O): 675 nm | fluorescent signal of stained ribs ([1]; 0.1 mg/mL in HEPES): clear fluorescent signal | fluorescent signal of stained ribs ([1]; 1 mg/mL diluted in dH2O): no fluorescent signal | dependence of fluorescence intensity of rib staining on incubation time ([1]; 1 mg/mL in HEPES): clear increase in fluorescence intensity with an increasing incubation time | difference of fluorescence intensity between buffers ([1]; 1 mg/mL in HEPES, PBS, TBS): no clear difference | change of fluorescence intensity after staining ([1]; 1 mg/mL in HEPES, day of staining vs 7 days later): noticeable decrease in fluorescence intensity | fluorescent signal of stained ribs compared to HEPES only negative control ([1]; 1 mg/mL in HEPES, incubated for 10 mins): clear fluorescent signal | HAP-associated staining / binding to HAP in rib sections ([1]; 120 mins): specific for hydroxyapatite | dependence of fluorescence intensity of rib staining on dye concentration ([1]; 120 mins): binds to HAP with a concentration dependence | fluorescent signal after staining ([1]; diluted in PBS, after two weeks): weak fluorescent signal | fluorescent signal after staining ([1]; diluted in PBS, one week after staining): fluorescent signal above background signal | fluorescent signal after staining ([1]; diluted in TBS, one week after staining): fluorescent signal above background signal

O=P(O)(O)c1cccc(-c2c3nc(c(-c4cccc(P(=O)(O)O)c4)c4ccc([nH]4)c(-c4cccc(P(=O)(O)O)c4)c4nc(c(-c5cccc(P(=O)(O)O)c5)c5ccc2[nH]5)C=C4)C=C3)c1 [m-H8TPPA, 5,10,15,20-tetrakis[m-phenylphosphonic acid] porphyrin]
dependence of fluorescence intensity of rib staining on incubation time ([1]; 1 mg/mL in HEPES): no clear difference in fluorescence intensity | change of fluorescence intensity after staining [1, 5]: no noticeable decrease in fluorescence intensity | dependence of fluorescence intensity of rib staining on dye concentration ([1]; 120 mins): little to no difference in the fluorescent intensity | duration of fluorescence of stained ribs ([1]; compared to p-H8TPPA): longer fluorescence period

CC(C)OP(=O)(OC(C)C)c1ccc(-c2c3nc(c(-c4ccc(P(=O)(OC(C)C)OC(C)C)cc4)c4ccc([nH]4)c(-c4ccc(P(=O)(OC(C)C)OC(C)C)cc4)c4nc(c(-c5ccc(P(=O)(OC(C)C)OC(C)C)cc5)c5ccc2[nH]5)C=C4)C=C3)cc1 [p-H8TPPA-iPr8]
cell labeling / passage through the cellular membrane (THP-1 monocytes): hindered their passage through the cellular membrane | solubility in the aqueous [4]: dramatically reduced their solubilities | HAP-associated staining / binding to HAP in rib sections ([1]; 120 mins): no binding to HAP occurring; also recorded: complete lack of HAP-associated staining

CC(C)OP(=O)(OC(C)C)c1ccc(-c2c3nc(c(-c4ccc(Br)cc4)c4ccc([nH]4)c(-c4ccc(Br)cc4)c4nc(c(-c5ccc(Br)cc5)c5ccc2[nH]5)C=C4)C=C3)cc1 [p-TBr3PPA-iPr2, 5,10,15-tris[p-bromophenyl]-20-[p-phenyl-, bis(1-methylethyl) esterphosphonic acid] porphyrin]
behaviour of the dye during incubation ([4]; 1 mg/mL in DMSO): precipitation of the dye | behaviour of the dye during the incubation period ([4]; 1 mg/mL in HEPES, PBS, TBS and dH2O, 120 mins): precipitated | HAP-associated staining / binding to HAP in rib sections ([1]; 120 mins): lack of HAP-associated staining; also recorded: no binding to HAP occurring
